Experimental data taken from the NIST ThermoML archive (doi:10.1021/je700344f).
± gives the expanded uncertainty stated by the source.

Experiment: xn = mol fraction of the nth substance listed
Details: 101 kPa, Liquid

Compound: CN(C)c1ccccc1 [N,N-dimethylaniline] + C1COCCO1
- mass density (283.15 K, x2 = 0.3099): 990.33 ± 2.4 kg/m3
- viscosity (283.15 K, x2 = 0.3099): 1.68 ± 0.12 mPa·s
- mass density (283.15 K, x2 = 0.4246): 998.33 ± 2.2 kg/m3
- viscosity (283.15 K, x2 = 0.4246): 1.66 ± 0.12 mPa·s
- mass density (283.15 K, x2 = 0.5302): 1005.32 ± 2.3 kg/m3
- viscosity (283.15 K, x2 = 0.5302): 1.637 ± 0.12 mPa·s
- mass density (283.15 K, x2 = 0.6278): 1013.42 ± 2.5 kg/m3
- viscosity (283.15 K, x2 = 0.6278): 1.629 ± 0.12 mPa·s
- mass density (283.15 K, x2 = 0.7182): 1019.31 ± 2.7 kg/m3
- viscosity (283.15 K, x2 = 0.7182): 1.607 ± 0.11 mPa·s
- mass density (283.15 K, x2 = 0.7749): 1025.23 ± 2.8 kg/m3
- viscosity (283.15 K, x2 = 0.7749): 1.606 ± 0.11 mPa·s
- mass density (283.15 K, x2 = 0.8551): 1034.31 ± 3 kg/m3
- viscosity (283.15 K, x2 = 0.8551): 1.602 ± 0.11 mPa·s
- mass density (283.15 K, x2 = 0.9081): 1040.92 ± 3.2 kg/m3
- viscosity (283.15 K, x2 = 0.9081): 1.591 ± 0.11 mPa·s
- mass density (283.15 K, x2 = 0.9538): 1043.01 ± 3.3 kg/m3
- viscosity (283.15 K, x2 = 0.9538): 1.588 ± 0.11 mPa·s
- mass density (293.15 K, x2 = 0.3099): 980.73 ± 2.7 kg/m3
- viscosity (293.15 K, x2 = 0.3099): 1.424 ± 0.1 mPa·s
- mass density (293.15 K, x2 = 0.4246): 989.12 ± 2.5 kg/m3
- viscosity (293.15 K, x2 = 0.4246): 1.428 ± 0.1 mPa·s
- mass density (293.15 K, x2 = 0.5302): 995.81 ± 2.3 kg/m3
- viscosity (293.15 K, x2 = 0.5302): 1.37 ± 0.098 mPa·s
- mass density (293.15 K, x2 = 0.6278): 1003.54 ± 2.3 kg/m3
- viscosity (293.15 K, x2 = 0.6278): 1.362 ± 0.097 mPa·s
- mass density (293.15 K, x2 = 0.7182): 1011.33 ± 2.5 kg/m3
- viscosity (293.15 K, x2 = 0.7182): 1.345 ± 0.096 mPa·s
- mass density (293.15 K, x2 = 0.7749): 1016.79 ± 2.6 kg/m3
- viscosity (293.15 K, x2 = 0.7749): 1.339 ± 0.096 mPa·s
- mass density (293.15 K, x2 = 0.8551): 1023.65 ± 2.8 kg/m3
- viscosity (293.15 K, x2 = 0.8551): 1.326 ± 0.095 mPa·s
- mass density (293.15 K, x2 = 0.9081): 1031.25 ± 3 kg/m3
- viscosity (293.15 K, x2 = 0.9081): 1.33 ± 0.095 mPa·s
- mass density (293.15 K, x2 = 0.9538): 1035.34 ± 3.1 kg/m3
- viscosity (293.15 K, x2 = 0.9538): 1.327 ± 0.095 mPa·s
- mass density (303.15 K, x2 = 0.3099): 973.4 ± 2.8 kg/m3
- viscosity (303.15 K, x2 = 0.3099): 1.199 ± 0.087 mPa·s
- mass density (303.15 K, x2 = 0.4246): 980.12 ± 2.7 kg/m3
- viscosity (303.15 K, x2 = 0.4246): 1.182 ± 0.086 mPa·s
- mass density (303.15 K, x2 = 0.5302): 986.56 ± 2.5 kg/m3
- viscosity (303.15 K, x2 = 0.5302): 1.166 ± 0.085 mPa·s
- mass density (303.15 K, x2 = 0.6278): 993.63 ± 2.3 kg/m3
- viscosity (303.15 K, x2 = 0.6278): 1.157 ± 0.084 mPa·s
- mass density (303.15 K, x2 = 0.7182): 1001.04 ± 2.2 kg/m3
- viscosity (303.15 K, x2 = 0.7182): 1.142 ± 0.083 mPa·s
- mass density (303.15 K, x2 = 0.7749): 1005.98 ± 2.3 kg/m3
- viscosity (303.15 K, x2 = 0.7749): 1.136 ± 0.083 mPa·s
- mass density (303.15 K, x2 = 0.8551): 1014.07 ± 2.5 kg/m3
- viscosity (303.15 K, x2 = 0.8551): 1.131 ± 0.083 mPa·s
- mass density (303.15 K, x2 = 0.9081): 1019.01 ± 2.7 kg/m3
- viscosity (303.15 K, x2 = 0.9081): 1.124 ± 0.082 mPa·s
- mass density (303.15 K, x2 = 0.9538): 1024.82 ± 2.8 kg/m3
- viscosity (303.15 K, x2 = 0.9538): 1.122 ± 0.082 mPa·s
- mass density (313.15 K, x2 = 0.3099): 963.88 ± 3.1 kg/m3
- viscosity (313.15 K, x2 = 0.3099): 1.029 ± 0.076 mPa·s
- mass density (313.15 K, x2 = 0.4246): 970.47 ± 2.9 kg/m3
- viscosity (313.15 K, x2 = 0.4246): 1.025 ± 0.076 mPa·s
- mass density (313.15 K, x2 = 0.5302): 977.93 ± 2.7 kg/m3
- viscosity (313.15 K, x2 = 0.5302): 1.01 ± 0.075 mPa·s
- mass density (313.15 K, x2 = 0.6278): 984.4 ± 2.6 kg/m3
- viscosity (313.15 K, x2 = 0.6278): 1.002 ± 0.074 mPa·s
- mass density (313.15 K, x2 = 0.7182): 991.21 ± 2.4 kg/m3
- viscosity (313.15 K, x2 = 0.7182): 0.987 ± 0.073 mPa·s
- mass density (313.15 K, x2 = 0.7749): 995.85 ± 2.3 kg/m3
- viscosity (313.15 K, x2 = 0.7749): 0.984 ± 0.073 mPa·s
- mass density (313.15 K, x2 = 0.8551): 1003.65 ± 2.3 kg/m3
- viscosity (313.15 K, x2 = 0.8551): 0.976 ± 0.073 mPa·s
- mass density (313.15 K, x2 = 0.9081): 1008.93 ± 2.4 kg/m3
- viscosity (313.15 K, x2 = 0.9081): 0.965 ± 0.072 mPa·s
- mass density (313.15 K, x2 = 0.9538): 1014.66 ± 2.5 kg/m3
- viscosity (313.15 K, x2 = 0.9538): 0.968 ± 0.072 mPa·s
- mass density (323.15 K, x2 = 0.3099): 955.01 ± 3.3 kg/m3
- viscosity (323.15 K, x2 = 0.3099): 0.912 ± 0.068 mPa·s
- mass density (323.15 K, x2 = 0.4246): 961.76 ± 3.1 kg/m3
- viscosity (323.15 K, x2 = 0.4246): 0.901 ± 0.068 mPa·s
- mass density (323.15 K, x2 = 0.5302): 968.52 ± 3 kg/m3
- viscosity (323.15 K, x2 = 0.5302): 0.886 ± 0.067 mPa·s
- mass density (323.15 K, x2 = 0.6278): 974.24 ± 2.8 kg/m3
- viscosity (323.15 K, x2 = 0.6278): 0.879 ± 0.066 mPa·s
- mass density (323.15 K, x2 = 0.7182): 981.34 ± 2.6 kg/m3
- viscosity (323.15 K, x2 = 0.7182): 0.872 ± 0.066 mPa·s
- mass density (323.15 K, x2 = 0.7749): 985.13 ± 2.5 kg/m3
- viscosity (323.15 K, x2 = 0.7749): 0.861 ± 0.065 mPa·s
- mass density (323.15 K, x2 = 0.8551): 993.17 ± 2.4 kg/m3
- viscosity (323.15 K, x2 = 0.8551): 0.857 ± 0.065 mPa·s
- mass density (323.15 K, x2 = 0.9081): 997.95 ± 2.2 kg/m3
- viscosity (323.15 K, x2 = 0.9081): 0.848 ± 0.064 mPa·s
- mass density (323.15 K, x2 = 0.9538): 1002.4 ± 2.2 kg/m3
- viscosity (323.15 K, x2 = 0.9538): 0.845 ± 0.064 mPa·s
- mass density (333.15 K, x2 = 0.3099): 945.84 ± 3.5 kg/m3
- viscosity (333.15 K, x2 = 0.3099): 0.811 ± 0.062 mPa·s
- mass density (333.15 K, x2 = 0.4246): 953.15 ± 3.3 kg/m3
- viscosity (333.15 K, x2 = 0.4246): 0.798 ± 0.061 mPa·s
- mass density (333.15 K, x2 = 0.5302): 958.78 ± 3.2 kg/m3
- viscosity (333.15 K, x2 = 0.5302): 0.786 ± 0.06 mPa·s
- mass density (333.15 K, x2 = 0.6278): 964.37 ± 3.1 kg/m3
- viscosity (333.15 K, x2 = 0.6278): 0.779 ± 0.06 mPa·s
- mass density (333.15 K, x2 = 0.7182): 971.52 ± 2.9 kg/m3
- viscosity (333.15 K, x2 = 0.7182): 0.771 ± 0.059 mPa·s
- mass density (333.15 K, x2 = 0.7749): 974.75 ± 2.8 kg/m3
- viscosity (333.15 K, x2 = 0.7749): 0.763 ± 0.059 mPa·s
- mass density (333.15 K, x2 = 0.8551): 983.43 ± 2.6 kg/m3
- viscosity (333.15 K, x2 = 0.8551): 0.761 ± 0.059 mPa·s
- mass density (333.15 K, x2 = 0.9081): 986.57 ± 2.5 kg/m3
- viscosity (333.15 K, x2 = 0.9081): 0.75 ± 0.058 mPa·s
- mass density (333.15 K, x2 = 0.9538): 991.84 ± 2.4 kg/m3
- viscosity (333.15 K, x2 = 0.9538): 0.751 ± 0.058 mPa·s
- mass density (343.15 K, x2 = 0.3099): 936.89 ± 3.7 kg/m3
- viscosity (343.15 K, x2 = 0.3099): 0.725 ± 0.056 mPa·s
- mass density (343.15 K, x2 = 0.4246): 944.04 ± 3.6 kg/m3
- viscosity (343.15 K, x2 = 0.4246): 0.716 ± 0.056 mPa·s
- mass density (343.15 K, x2 = 0.5302): 948.37 ± 3.5 kg/m3
- viscosity (343.15 K, x2 = 0.5302): 0.71 ± 0.055 mPa·s
- mass density (343.15 K, x2 = 0.6278): 954.22 ± 3.3 kg/m3
- viscosity (343.15 K, x2 = 0.6278): 0.711 ± 0.055 mPa·s
- mass density (343.15 K, x2 = 0.7182): 962.15 ± 3.1 kg/m3
- viscosity (343.15 K, x2 = 0.7182): 0.689 ± 0.054 mPa·s
- mass density (343.15 K, x2 = 0.7749): 964.44 ± 3.1 kg/m3
- viscosity (343.15 K, x2 = 0.7749): 0.683 ± 0.054 mPa·s
- mass density (343.15 K, x2 = 0.8551): 971.97 ± 2.9 kg/m3
- viscosity (343.15 K, x2 = 0.8551): 0.678 ± 0.053 mPa·s
- mass density (343.15 K, x2 = 0.9081): 977.83 ± 2.7 kg/m3
- viscosity (343.15 K, x2 = 0.9081): 0.674 ± 0.053 mPa·s
- mass density (343.15 K, x2 = 0.9538): 980.14 ± 2.7 kg/m3
- viscosity (343.15 K, x2 = 0.9538): 0.67 ± 0.053 mPa·s
